# Measurements reported in PubChem BioAssay (NCI).
#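 Cultured in 96-well plates, cells were exposed to test compound for 48 hours across five concentrations. The concentration for full growth arrest is given as TGI.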
# Legend:
# Test in all cases: DTP human tumour cell line panel, 48 h
# NCI-H522 lung = tested on: NCI-H522 lung
# SNB-19 CNS = tested on: SNB-19 CNS
# HCT-15 colon = tested on: HCT-15 colon
# OVCAR-8 ovarian = tested on: OVCAR-8 ovarian
# HOP-92 NSCLC = tested on: HOP-92 NSCLC
# PC-3 prostate = tested on: PC-3 prostate
# DU-145 prostate = tested on: DU-145 prostate
# NCI-H226 lung = tested on: NCI-H226 lung
# EKVX NSCLC = tested on: EKVX NSCLC
# BT-549 breast = tested on: BT-549 breast
# ACHN renal = tested on: ACHN renal
# SNB-75 CNS = tested on: SNB-75 CNS
# HS 578T breast = tested on: HS 578T breast
# CAKI-1 renal = tested on: CAKI-1 renal
# SK-OV-3 ovarian = tested on: SK-OV-3 ovarian
# SF-268 CNS = tested on: SF-268 CNS
# HCT-116 colon = tested on: HCT-116 colon
# COLO 205 colon = tested on: COLO 205 colon
# SN12C renal = tested on: SN12C renal
# LOX IMVI melanoma = tested on: LOX IMVI melanoma
# TK-10 renal = tested on: TK-10 renal
# A549 NSCLC = tested on: A549 NSCLC
# HOP-62 NSCLC = tested on: HOP-62 NSCLC
# UACC-62 melanoma = tested on: UACC-62 melanoma
# NCI-H460 lung = tested on: NCI-H460 lung
# MDA-N = tested on: MDA-N
# SK-MEL-28 melanoma = tested on: SK-MEL-28 melanoma
# A498 renal = tested on: A498 renal
# SF-295 CNS = tested on: SF-295 CNS
# IGROV1 ovarian = tested on: IGROV1 ovarian
# SF-539 CNS = tested on: SF-539 CNS
# KM12 colon = tested on: KM12 colon
# U251 CNS = tested on: U251 CNS
# HT29 colon = tested on: HT29 colon
# NCI/ADR-RES ovarian = tested on: NCI/ADR-RES ovarian
# MDA-MB-435 = tested on: MDA-MB-435
# HL-60(TB) leukemia = tested on: HL-60(TB) leukemia
# CCRF-CEM leukemia = tested on: CCRF-CEM leukemia
# K-562 leukemia = tested on: K-562 leukemia
# UACC-257 melanoma = tested on: UACC-257 melanoma
# RXF 393 renal = tested on: RXF 393 renal
# OVCAR-5 ovarian = tested on: OVCAR-5 ovarian
# T-47D breast = tested on: T-47D breast
# RPMI-8226 leukemia = tested on: RPMI-8226 leukemia
# UO-31 renal = tested on: UO-31 renal
# SR leukemia = tested on: SR leukemia
# SK-MEL-5 melanoma = tested on: SK-MEL-5 melanoma
# SW-620 colon = tested on: SW-620 colon
# MCF7 breast = tested on: MCF7 breast
# MOLT-4 leukemia = tested on: MOLT-4 leukemia
# OVCAR-4 ovarian = tested on: OVCAR-4 ovarian
# 786-0 renal = tested on: 786-0 renal
# M14 melanoma = tested on: M14 melanoma
# OVCAR-3 ovarian = tested on: OVCAR-3 ovarian
# SK-MEL-2 melanoma = tested on: SK-MEL-2 melanoma
# MDA-MB-231 breast = tested on: MDA-MB-231 breast
# MALME-3M melanoma = tested on: MALME-3M melanoma
# NCI-H23 lung = tested on: NCI-H23 lung
# HCC-2998 colon = tested on: HCC-2998 colon
smiles,measurement,setting,value
COC(=O)c1cccc2c1Oc1ccccc1S2,TGI,NCI-H522 lung,> 100 µM
same,TGI,SNB-19 CNS,> 100 µM
same,TGI,HCT-15 colon,> 100 µM
same,TGI,OVCAR-8 ovarian,> 100 µM
same,TGI,HOP-92 NSCLC,> 100 µM
same,TGI,PC-3 prostate,> 100 µM
same,TGI,DU-145 prostate,> 100 µM
same,TGI,NCI-H226 lung,> 100 µM
same,TGI,EKVX NSCLC,> 100 µM
same,TGI,BT-549 breast,> 100 µM
same,TGI,ACHN renal,> 100 µM
same,TGI,SNB-75 CNS,71.1 µM
same,TGI,HS 578T breast,> 100 µM
same,TGI,CAKI-1 renal,65.1 µM
same,TGI,SK-OV-3 ovarian,> 100 µM
same,TGI,SF-268 CNS,> 100 µM
same,TGI,HCT-116 colon,> 100 µM
same,TGI,COLO 205 colon,79.4 µM
same,TGI,SN12C renal,> 100 µM
same,TGI,LOX IMVI melanoma,> 100 µM
same,TGI,TK-10 renal,> 100 µM
same,TGI,A549 NSCLC,> 100 µM
same,TGI,HOP-62 NSCLC,> 100 µM
same,TGI,UACC-62 melanoma,> 100 µM
same,TGI,NCI-H460 lung,> 100 µM
same,TGI,MDA-N,> 100 µM
same,TGI,SK-MEL-28 melanoma,> 100 µM
same,TGI,A498 renal,> 100 µM
same,TGI,SF-295 CNS,> 100 µM
same,TGI,IGROV1 ovarian,> 100 µM
same,TGI,SF-539 CNS,> 100 µM
same,TGI,KM12 colon,36.4 µM
same,TGI,U251 CNS,> 100 µM
same,TGI,HT29 colon,75.2 µM
same,TGI,NCI/ADR-RES ovarian,> 100 µM
same,TGI,MDA-MB-435,> 100 µM
same,TGI,HL-60(TB) leukemia,28.9 µM
same,TGI,CCRF-CEM leukemia,56.9 µM
same,TGI,K-562 leukemia,> 100 µM
same,TGI,UACC-257 melanoma,> 100 µM
same,TGI,RXF 393 renal,> 100 µM
same,TGI,OVCAR-5 ovarian,> 100 µM
same,TGI,T-47D breast,> 100 µM
same,TGI,RPMI-8226 leukemia,> 100 µM
same,TGI,UO-31 renal,> 100 µM
same,TGI,SR leukemia,> 100 µM
same,TGI,SK-MEL-5 melanoma,54.9 µM
same,TGI,SW-620 colon,> 100 µM
same,TGI,MCF7 breast,> 100 µM
same,TGI,MOLT-4 leukemia,70 µM
same,TGI,OVCAR-4 ovarian,> 100 µM
same,TGI,786-0 renal,> 100 µM
same,TGI,M14 melanoma,> 100 µM
same,TGI,OVCAR-3 ovarian,> 100 µM
same,TGI,SK-MEL-2 melanoma,> 100 µM
same,TGI,MDA-MB-231 breast,> 100 µM
CCOC(=O)c1ccc2c(=O)n3c(C(=O)OCC)ccc3c(=O)n12,TGI,NCI-H522 lung,> 100 µM
same,TGI,SNB-19 CNS,> 100 µM
same,TGI,HCT-15 colon,> 100 µM
same,TGI,MALME-3M melanoma,> 100 µM
same,TGI,OVCAR-8 ovarian,> 100 µM
same,TGI,PC-3 prostate,> 100 µM
same,TGI,DU-145 prostate,> 100 µM
same,TGI,NCI-H226 lung,> 100 µM
same,TGI,EKVX NSCLC,> 100 µM
same,TGI,BT-549 breast,> 100 µM
same,TGI,ACHN renal,> 100 µM
same,TGI,SNB-75 CNS,> 100 µM
same,TGI,HS 578T breast,> 100 µM
same,TGI,NCI-H23 lung,> 100 µM
same,TGI,CAKI-1 renal,> 100 µM
same,TGI,SK-OV-3 ovarian,> 100 µM
same,TGI,SF-268 CNS,> 100 µM
same,TGI,HCT-116 colon,> 100 µM
same,TGI,COLO 205 colon,> 100 µM
same,TGI,SN12C renal,> 100 µM
same,TGI,LOX IMVI melanoma,> 100 µM
same,TGI,TK-10 renal,> 100 µM
same,TGI,A549 NSCLC,> 100 µM
same,TGI,HOP-62 NSCLC,> 100 µM
same,TGI,UACC-62 melanoma,> 100 µM
same,TGI,NCI-H460 lung,> 100 µM
same,TGI,MDA-N,> 100 µM
same,TGI,SK-MEL-28 melanoma,> 100 µM
same,TGI,A498 renal,> 100 µM
same,TGI,SF-295 CNS,> 100 µM
same,TGI,IGROV1 ovarian,> 100 µM
same,TGI,HCC-2998 colon,> 100 µM
same,TGI,KM12 colon,> 100 µM
same,TGI,U251 CNS,> 100 µM
same,TGI,HT29 colon,> 100 µM
same,TGI,NCI/ADR-RES ovarian,> 100 µM
same,TGI,MDA-MB-435,> 100 µM
same,TGI,HL-60(TB) leukemia,> 100 µM
same,TGI,CCRF-CEM leukemia,> 100 µM
same,TGI,K-562 leukemia,> 100 µM
same,TGI,UACC-257 melanoma,> 100 µM
same,TGI,RXF 393 renal,> 100 µM
same,TGI,OVCAR-5 ovarian,> 100 µM
same,TGI,T-47D breast,> 100 µM
same,TGI,RPMI-8226 leukemia,> 100 µM
same,TGI,UO-31 renal,> 100 µM
same,TGI,SR leukemia,> 100 µM
same,TGI,SK-MEL-5 melanoma,> 100 µM
same,TGI,SW-620 colon,> 100 µM
same,TGI,MCF7 breast,> 100 µM
same,TGI,MOLT-4 leukemia,> 100 µM
same,TGI,OVCAR-4 ovarian,> 100 µM
same,TGI,786-0 renal,> 100 µM
same,TGI,M14 melanoma,> 100 µM
same,TGI,OVCAR-3 ovarian,> 100 µM
same,TGI,SK-MEL-2 melanoma,> 100 µM
same,TGI,MDA-MB-231 breast,> 100 µM
